Experimental data taken from ChEMBL document CHEMBL1201862, “PubChem BioAssay data set” (2004).
Activity calls are given as the source filed them.

Tests used:
[1] = microbe, parasite or virus in culture; assay type: functional; details: Mycobacterium tuberculosis
[2] = molecular target: T1, RNA-binding protein pos-1 (Caenorhabditis elegans, UniProt G5EF15); experiment: inhibitors of POS-1/mex-3 RNA binding, dose response, biochemical, fluorescence polarization (AID 1964);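 note: purified POS-1 fused to maltose binding protein made in E. coli; potency of compounds blocking POS-1 binding to fluorescent RNA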
T1 sequence (G5EF15 whole entry): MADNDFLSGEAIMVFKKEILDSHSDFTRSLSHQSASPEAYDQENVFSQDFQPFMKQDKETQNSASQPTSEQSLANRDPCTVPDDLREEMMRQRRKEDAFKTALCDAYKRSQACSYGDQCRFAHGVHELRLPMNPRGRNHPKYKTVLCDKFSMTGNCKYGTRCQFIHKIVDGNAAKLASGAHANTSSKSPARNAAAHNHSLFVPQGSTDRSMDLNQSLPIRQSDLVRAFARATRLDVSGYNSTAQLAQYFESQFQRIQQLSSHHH

[3] = molecular target: T2, Zinc finger protein mex-5 (Caenorhabditis elegans, UniProt Q9XUB2); experiment: MEX-5/TCR-2 RNA interaction inhibitors, dose response, biochemical, C. elegans, fluorescence polarization (AID 1960)
T2 sequence (Q9XUB2 whole entry): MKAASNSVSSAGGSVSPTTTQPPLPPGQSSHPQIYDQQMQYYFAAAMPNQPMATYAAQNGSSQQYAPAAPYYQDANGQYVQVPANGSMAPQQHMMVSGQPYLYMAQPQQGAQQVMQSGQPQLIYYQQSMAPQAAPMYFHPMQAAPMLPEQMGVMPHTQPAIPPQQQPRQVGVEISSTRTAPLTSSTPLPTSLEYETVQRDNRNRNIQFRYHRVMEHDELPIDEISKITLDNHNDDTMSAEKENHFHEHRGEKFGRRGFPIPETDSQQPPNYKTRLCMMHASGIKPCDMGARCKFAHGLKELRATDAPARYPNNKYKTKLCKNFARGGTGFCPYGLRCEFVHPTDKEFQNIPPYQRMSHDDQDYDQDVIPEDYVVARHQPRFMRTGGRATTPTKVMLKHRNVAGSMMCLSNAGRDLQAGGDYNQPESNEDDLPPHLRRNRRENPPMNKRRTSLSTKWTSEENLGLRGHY

Cytochrome P450 2C19 = Cytochrome P450 2C19 (Homo sapiens, UniProt P33261); experiment: Cytochrome panel assay with activity outcomes. Panel member name: p450-cyp2c19 Compounds with AC50 equal or less than 10 uM are considered active; assay type: functional
Sequence of Cytochrome P450 2C19 (P33261 whole entry): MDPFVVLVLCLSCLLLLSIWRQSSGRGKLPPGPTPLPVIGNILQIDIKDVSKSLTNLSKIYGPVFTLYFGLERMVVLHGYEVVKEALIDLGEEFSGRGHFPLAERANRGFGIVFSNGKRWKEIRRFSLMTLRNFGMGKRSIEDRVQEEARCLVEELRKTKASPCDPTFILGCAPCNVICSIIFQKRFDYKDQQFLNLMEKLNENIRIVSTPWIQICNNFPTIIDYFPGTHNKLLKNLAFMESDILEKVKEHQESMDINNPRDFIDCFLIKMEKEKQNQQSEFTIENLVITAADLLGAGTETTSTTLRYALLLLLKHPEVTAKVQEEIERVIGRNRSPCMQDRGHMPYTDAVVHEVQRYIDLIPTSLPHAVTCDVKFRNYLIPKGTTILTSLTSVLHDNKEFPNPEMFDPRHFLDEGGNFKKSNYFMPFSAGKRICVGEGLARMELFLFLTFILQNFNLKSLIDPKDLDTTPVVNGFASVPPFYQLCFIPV

Cytochrome P450 2C9 = Cytochrome P450 2C9 (Homo sapiens, UniProt P11712)
Sequence of Cytochrome P450 2C9 (P11712 whole entry): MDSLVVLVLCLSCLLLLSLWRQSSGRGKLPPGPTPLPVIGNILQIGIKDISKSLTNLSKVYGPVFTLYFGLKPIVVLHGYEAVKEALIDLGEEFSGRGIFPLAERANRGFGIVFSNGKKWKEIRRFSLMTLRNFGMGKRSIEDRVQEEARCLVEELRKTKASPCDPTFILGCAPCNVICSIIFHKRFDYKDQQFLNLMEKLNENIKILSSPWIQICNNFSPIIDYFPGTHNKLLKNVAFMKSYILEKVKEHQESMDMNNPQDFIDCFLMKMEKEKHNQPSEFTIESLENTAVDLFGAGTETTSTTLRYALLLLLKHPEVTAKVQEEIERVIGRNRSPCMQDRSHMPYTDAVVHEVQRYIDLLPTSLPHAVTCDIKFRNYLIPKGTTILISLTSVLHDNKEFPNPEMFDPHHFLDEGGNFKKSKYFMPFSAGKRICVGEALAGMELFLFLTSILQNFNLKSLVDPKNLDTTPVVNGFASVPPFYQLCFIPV

H4 = experiment: Luminescence Cell-Based Dose Response HTS to Identify Activators of 5'UTR Stem-Loop Driven Prion Protein mRNA Translation in H4 Neuroglioblastoma Cells. [Related pubchem assays: 1829 (Project Summary), 1814 (Primary HTS)]; assay type: functional; details: Homo sapiens
[4] = Luminescence Cell-Based Dose Response HTS to Identify Activators of Luciferase Translation or Activity in H4 […] Cells. [Related pubchem assays: 1829 (Project Summary), 1814 (Primary HTS)]; assay type: functional
Protein skinhead-1 = molecular target: T3, Protein skinhead-1 (Caenorhabditis elegans, UniProt P34707); assay type: functional
T3 sequence (P34707 whole entry): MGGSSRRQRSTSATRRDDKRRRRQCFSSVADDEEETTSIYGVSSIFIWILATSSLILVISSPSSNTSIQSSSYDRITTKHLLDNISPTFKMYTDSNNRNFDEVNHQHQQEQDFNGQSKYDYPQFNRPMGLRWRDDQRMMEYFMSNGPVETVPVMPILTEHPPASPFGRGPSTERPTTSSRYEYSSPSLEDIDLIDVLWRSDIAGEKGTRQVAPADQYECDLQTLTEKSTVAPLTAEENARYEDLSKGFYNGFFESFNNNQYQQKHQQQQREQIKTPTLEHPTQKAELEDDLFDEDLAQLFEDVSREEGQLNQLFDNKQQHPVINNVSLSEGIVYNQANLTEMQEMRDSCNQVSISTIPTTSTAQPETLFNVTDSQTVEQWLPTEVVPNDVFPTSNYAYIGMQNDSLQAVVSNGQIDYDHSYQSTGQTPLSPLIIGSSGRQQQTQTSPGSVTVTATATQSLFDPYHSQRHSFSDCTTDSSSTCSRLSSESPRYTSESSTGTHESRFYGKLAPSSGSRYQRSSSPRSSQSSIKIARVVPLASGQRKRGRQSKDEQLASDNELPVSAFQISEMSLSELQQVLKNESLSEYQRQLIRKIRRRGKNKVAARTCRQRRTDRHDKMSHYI

[5] = C. albicans growth with fluconazole, confirmation, fluorescence, retest (AID 2467); assay type: functional, cell-based
[6] = NIH-3T3 fibroblast cytotoxicity, dose response, cytotoxicity control, cell-based, fluorescence, Alamar Blue, secondary assay (AID 2327); assay type: functional;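 note: NIH-3T3 mouse fibroblasts cultured with fluconazole at 8 µg/mL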
Cytochrome P450 2D6 = Cytochrome P450 2D6 (Homo sapiens, UniProt P10635);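 note: CYP2D6 member of a cytochrome P450 panel assay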
Sequence of Cytochrome P450 2D6 (P10635 whole entry): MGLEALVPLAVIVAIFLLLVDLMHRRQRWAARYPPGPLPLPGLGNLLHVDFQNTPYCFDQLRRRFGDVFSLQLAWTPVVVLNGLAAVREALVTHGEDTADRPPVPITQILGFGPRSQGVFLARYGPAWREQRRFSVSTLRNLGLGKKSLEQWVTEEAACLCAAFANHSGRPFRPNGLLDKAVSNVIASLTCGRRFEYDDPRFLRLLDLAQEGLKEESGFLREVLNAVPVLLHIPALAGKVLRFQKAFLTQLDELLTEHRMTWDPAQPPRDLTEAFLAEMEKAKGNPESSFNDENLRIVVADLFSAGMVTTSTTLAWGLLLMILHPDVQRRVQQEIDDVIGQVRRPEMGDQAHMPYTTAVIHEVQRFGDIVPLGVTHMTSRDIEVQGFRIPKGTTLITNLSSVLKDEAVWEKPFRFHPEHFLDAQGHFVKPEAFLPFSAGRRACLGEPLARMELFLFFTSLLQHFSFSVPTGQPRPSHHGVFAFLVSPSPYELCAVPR

Cytochrome P450 1A2 = molecular target: T4, Cytochrome P450 1A2 (Homo sapiens, UniProt P05177);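 note: PubChem cytochrome P450 panel assay, CYP1A2 panel member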
T4 sequence (P05177 whole entry): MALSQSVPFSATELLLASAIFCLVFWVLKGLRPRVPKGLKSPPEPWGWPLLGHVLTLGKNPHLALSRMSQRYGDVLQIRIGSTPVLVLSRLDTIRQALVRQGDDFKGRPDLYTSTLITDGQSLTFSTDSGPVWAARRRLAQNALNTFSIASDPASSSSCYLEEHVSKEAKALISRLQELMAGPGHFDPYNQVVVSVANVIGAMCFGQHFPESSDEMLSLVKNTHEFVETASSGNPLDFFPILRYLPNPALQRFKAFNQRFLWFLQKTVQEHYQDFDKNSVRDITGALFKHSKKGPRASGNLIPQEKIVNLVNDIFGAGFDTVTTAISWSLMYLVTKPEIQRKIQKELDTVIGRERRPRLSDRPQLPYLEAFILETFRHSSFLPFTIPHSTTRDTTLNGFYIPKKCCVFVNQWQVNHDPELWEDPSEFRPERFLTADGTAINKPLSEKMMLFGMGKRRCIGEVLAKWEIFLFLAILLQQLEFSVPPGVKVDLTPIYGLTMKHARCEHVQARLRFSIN

[7] = growth suppression of PTEN-null colon cells, dose response, cell-based, HCT116 PTEN knockout (AID 1047); assay type: functional;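 note: HCT116 colon tumor cells with PTEN knocked out; cells exposed to compound for 60 hours before readout; potency for loss of cell viability measured by luminescence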
[8] = growth suppression of beta-catenin-knockout colon cells, dose response, cell-based, HCT116, human colon tumor (AID 1045); assay type: functional;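 note: HCT116 colon tumor cells with beta catenin knocked out; cells exposed to compound for 60 hours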
[9] = system: Streptococcus sp. 'group A'; experiment: growth inhibition of control SK(-) GAS strain, dose response, counter-screen for streptokinase expression inhibitor project, luminescence, kanamycin, BacTiterGlo, confirmation (AID 1900); assay type: functional, organism-based
Streptokinase A = molecular target: T5, Streptokinase A (Streptococcus pyogenes serotype M1, UniProt P10520); experiment: S. pyogenes streptokinase expression inhibitors, potency, dose response, plasminogen activation absorbance, OD405 (AID 1914); assay type: functional, Streptococcus pyogenes M1 GAS;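 note: secreted streptokinase activity via plasminogen activation per viability signal from cell pellet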
T5 sequence (P10520 whole entry): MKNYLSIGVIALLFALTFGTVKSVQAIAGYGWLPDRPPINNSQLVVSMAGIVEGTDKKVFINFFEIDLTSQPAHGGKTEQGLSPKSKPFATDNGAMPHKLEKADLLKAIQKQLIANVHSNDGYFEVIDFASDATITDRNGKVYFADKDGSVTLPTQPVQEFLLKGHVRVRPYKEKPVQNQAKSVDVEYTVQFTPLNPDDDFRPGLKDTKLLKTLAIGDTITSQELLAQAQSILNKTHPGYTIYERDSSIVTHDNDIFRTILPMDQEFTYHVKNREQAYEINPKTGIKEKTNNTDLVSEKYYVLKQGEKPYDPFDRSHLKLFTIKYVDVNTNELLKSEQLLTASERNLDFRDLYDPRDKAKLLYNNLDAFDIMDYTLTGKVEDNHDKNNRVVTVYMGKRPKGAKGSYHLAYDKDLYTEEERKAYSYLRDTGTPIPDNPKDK

Streptococcus = experiment: Group A Streptococcus viability loss, dose response, counter-screen for streptokinase expression inhibitor project, luminescence, BacTiterGlo (AID 1915); assay type: functional, organism-based;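 note: potency for reduction of bacterial viability or growth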

Cc1nn(-c2ccccc2)c(N)c1C(c1ccc(C(C)C)cc1)c1c(C)nn(-c2ccccc2)c1N
CC50 [1]: > 40 µM (active)

Cc1ccc(NC(=O)/C(C#N)=C/c2ccc(C)s2)c(C)c1
EC50 [2]: 64.2 µM (inconclusive)
EC50 [3]: 9.25 µM (active)

CCN=C(S)N1CCC(NC(=O)C2CCCCC2)CC1
AC50 (Cytochrome P450 2C19): inconclusive
AC50 (Cytochrome P450 2C9): inconclusive

c1csc(CSc2nc3ccccc3s2)c1
EC50 (H4): 36.9 µM (active)
EC50 [4]: 1.12 µM (active)
IC50 (Protein skinhead-1): 27.5 µM (active)

Cc1ccc2c(c1)C(c1ccc(N3CCOCC3)cc1)=NNC(c1cccs1)=N2
CC50 [1]: 38.6 µM (active)

CSC(=Nc1ccc(F)c(Cl)c1)NS(=O)(=O)c1cccs1
EC50 [5]: 0.805 µM (active)
EC50 [6]: > 150 µM (inactive)

c1ccc(Cn2nnc3c(NCCN4CCOCC4)ncnc32)cc1
IC50 (Protein skinhead-1): > 100 µM (inactive)

CC[C@@H]1CN2CCc3cc(OC)c(OC)cc3[C@H]2C[C@@H]1C[C@@H]1NCCc2cc(O)c(OC)cc21
AC50 (Cytochrome P450 2D6): 10 µM (inconclusive)

NS(=O)(=O)c1ccc(NC(S)=NNC(=O)CCC(=O)Nc2ccccc2Cl)cc1
EC50 [2]: 13 µM (inconclusive)
EC50 [3]: 12.2 µM (active)

CO/N=C/C(=C\Nc1ccc(Cl)cc1Cl)c1ncc(C(F)(F)F)cc1Cl
EC50 [6]: > 160 µM (inconclusive)

CCOc1ccc(/C=N/Nc2nc(N3CCCC3)nc(N3CCCC3)n2)cc1OC
AC50 (Cytochrome P450 2C19; read-out: AC50): 39.8 µM (inconclusive)
AC50 (Cytochrome P450 2C9): inconclusive
AC50 (Cytochrome P450 1A2): 39.8 µM (inconclusive)

CN(C)c1ccc(/C=C(\C#N)C(=O)Nc2nc3c(s2)CCN(Cc2ccccc2)C3)cc1
IC50 (Protein skinhead-1): > 100 µM (inactive)

Cc1cc(C)c(C#N)c(SC[S+]([O-])c2ccc(C(C)(C)C)cc2)n1 (centres undefined)
AC50 (Cytochrome P450 2C9): inconclusive

CCn1nnc2sc3c(c2c1=O)CCC(C)C3 (centres undefined)
IC50 (Protein skinhead-1): > 100 µM (inactive)

COc1ccc(OC)c(S(=O)(=O)N2CCC(C(=O)Nc3ccc(C)c(C)c3)CC2)c1
AC50 (Cytochrome P450 2C9): inconclusive
AC50 (Cytochrome P450 1A2): 12.6 µM (inconclusive)

CCN(CC)c1ccc(/C=N/Nc2nc3ccccc3[nH]2)cc1
EC50 [7]: 2.96 µM (active)
EC50 [5]: > 38 µM (not active)
EC50 [8]: 2.76 µM (active)
EC50 [6]: 6.64 µM (active)

Cc1nnc(NC(=O)c2ccc(S(=O)(=O)N(C)Cc3ccccc3)cc2)o1
EC50 [9]: 4.98 µM (active)
EC50 [5]: 2.21 µM (active)
EC50 (Streptokinase A): > 150 µM (not active)
EC50 (Streptococcus): 17 µM (active)
EC50 [6]: 21.7 µM (active)

CCOc1cc(CNCCSc2nnnn2C)cc(Br)c1OCc1ccc(F)cc1
IC50 (Protein skinhead-1): 6.7 µM (active)
